Biological target: HCV RdRp (NS5B) (UniProt P26663)
Format: biochemical, hepatitis C virus

Sequence of HCV RdRp (NS5B) (P26663 whole entry, looked up): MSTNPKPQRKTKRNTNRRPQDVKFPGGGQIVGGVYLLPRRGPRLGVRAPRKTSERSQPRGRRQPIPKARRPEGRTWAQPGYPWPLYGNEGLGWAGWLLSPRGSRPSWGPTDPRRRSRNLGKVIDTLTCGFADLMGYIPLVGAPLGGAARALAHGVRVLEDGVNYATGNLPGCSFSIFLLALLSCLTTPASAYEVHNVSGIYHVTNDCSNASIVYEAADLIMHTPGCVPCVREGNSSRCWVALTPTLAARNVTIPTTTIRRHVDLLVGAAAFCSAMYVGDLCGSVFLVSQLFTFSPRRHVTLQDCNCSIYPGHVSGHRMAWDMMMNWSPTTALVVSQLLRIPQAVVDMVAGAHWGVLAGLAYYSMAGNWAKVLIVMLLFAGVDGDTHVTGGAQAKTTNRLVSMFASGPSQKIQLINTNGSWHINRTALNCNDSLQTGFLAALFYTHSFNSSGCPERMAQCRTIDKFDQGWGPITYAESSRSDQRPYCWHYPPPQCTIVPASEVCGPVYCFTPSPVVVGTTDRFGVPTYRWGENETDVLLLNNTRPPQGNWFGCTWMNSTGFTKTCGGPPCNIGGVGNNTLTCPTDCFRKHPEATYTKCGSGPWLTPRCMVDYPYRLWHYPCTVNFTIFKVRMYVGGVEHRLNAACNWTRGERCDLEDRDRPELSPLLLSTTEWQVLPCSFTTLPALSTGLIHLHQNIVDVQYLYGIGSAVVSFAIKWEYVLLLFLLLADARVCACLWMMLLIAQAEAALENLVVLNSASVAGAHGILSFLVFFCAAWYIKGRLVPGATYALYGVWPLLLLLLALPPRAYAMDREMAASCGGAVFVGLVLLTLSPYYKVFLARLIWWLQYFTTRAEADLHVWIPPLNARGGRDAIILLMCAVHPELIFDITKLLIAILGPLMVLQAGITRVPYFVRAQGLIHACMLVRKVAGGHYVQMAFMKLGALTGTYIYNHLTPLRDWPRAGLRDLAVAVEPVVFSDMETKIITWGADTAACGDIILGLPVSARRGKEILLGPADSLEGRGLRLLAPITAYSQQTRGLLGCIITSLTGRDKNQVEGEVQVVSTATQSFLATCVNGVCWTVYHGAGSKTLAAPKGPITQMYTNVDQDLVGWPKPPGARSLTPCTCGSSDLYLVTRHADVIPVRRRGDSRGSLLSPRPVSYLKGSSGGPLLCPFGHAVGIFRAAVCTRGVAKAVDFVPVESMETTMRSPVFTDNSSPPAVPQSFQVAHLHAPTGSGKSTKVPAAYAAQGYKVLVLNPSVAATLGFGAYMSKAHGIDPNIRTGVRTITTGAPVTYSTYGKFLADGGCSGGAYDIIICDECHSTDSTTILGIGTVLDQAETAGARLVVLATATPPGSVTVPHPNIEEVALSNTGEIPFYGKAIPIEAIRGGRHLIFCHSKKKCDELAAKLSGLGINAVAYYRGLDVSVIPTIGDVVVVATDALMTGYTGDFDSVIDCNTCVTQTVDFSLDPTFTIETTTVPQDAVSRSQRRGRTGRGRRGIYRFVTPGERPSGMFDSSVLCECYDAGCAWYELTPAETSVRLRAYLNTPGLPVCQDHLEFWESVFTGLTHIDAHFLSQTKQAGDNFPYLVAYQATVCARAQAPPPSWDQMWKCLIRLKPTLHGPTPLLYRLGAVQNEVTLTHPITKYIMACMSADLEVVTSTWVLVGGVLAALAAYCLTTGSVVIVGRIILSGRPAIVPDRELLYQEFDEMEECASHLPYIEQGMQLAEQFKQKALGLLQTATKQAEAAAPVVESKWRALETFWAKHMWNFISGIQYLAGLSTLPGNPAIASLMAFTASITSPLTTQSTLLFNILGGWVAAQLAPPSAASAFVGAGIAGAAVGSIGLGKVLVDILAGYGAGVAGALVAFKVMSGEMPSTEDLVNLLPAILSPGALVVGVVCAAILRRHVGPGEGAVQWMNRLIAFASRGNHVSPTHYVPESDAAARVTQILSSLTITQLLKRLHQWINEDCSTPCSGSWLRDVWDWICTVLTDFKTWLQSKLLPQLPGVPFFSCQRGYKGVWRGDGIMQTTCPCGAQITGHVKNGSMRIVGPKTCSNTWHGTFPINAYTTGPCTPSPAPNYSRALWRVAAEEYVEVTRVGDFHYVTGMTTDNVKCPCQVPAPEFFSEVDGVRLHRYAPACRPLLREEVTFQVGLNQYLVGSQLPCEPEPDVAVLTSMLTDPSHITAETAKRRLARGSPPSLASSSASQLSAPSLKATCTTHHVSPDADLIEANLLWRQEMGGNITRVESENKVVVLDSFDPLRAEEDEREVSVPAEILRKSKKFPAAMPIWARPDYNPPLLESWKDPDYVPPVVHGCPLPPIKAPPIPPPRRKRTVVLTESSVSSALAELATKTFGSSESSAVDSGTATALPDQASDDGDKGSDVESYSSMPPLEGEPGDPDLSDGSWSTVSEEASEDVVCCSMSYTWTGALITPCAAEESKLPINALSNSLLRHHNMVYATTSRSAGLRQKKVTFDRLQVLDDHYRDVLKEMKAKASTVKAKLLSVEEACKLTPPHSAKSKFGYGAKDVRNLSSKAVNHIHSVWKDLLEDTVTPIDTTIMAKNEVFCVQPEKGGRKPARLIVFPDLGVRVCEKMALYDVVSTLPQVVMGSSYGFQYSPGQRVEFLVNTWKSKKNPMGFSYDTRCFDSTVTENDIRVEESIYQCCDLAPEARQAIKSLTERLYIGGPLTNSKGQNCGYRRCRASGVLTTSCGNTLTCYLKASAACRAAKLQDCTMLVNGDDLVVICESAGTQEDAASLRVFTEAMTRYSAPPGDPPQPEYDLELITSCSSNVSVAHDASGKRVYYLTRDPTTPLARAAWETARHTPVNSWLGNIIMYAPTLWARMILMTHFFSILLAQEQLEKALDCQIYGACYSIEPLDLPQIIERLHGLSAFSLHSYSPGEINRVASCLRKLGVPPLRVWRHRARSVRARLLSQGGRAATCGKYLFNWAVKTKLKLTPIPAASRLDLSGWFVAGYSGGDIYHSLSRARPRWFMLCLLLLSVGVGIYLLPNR

SMILES	IC50
Cc1ccc(NC(=O)[C@H](CCCCN)NC(=O)Nc2ccc(OCc3cc(F)cc(F)c3)cc2)cc1 [Compound 256, (S)-6-AMINO-2-{3-[4-(3,5-DIFLUORO-BENZYLOXY)-PHENYL]-UREIDO}-HEXANOIC ACID P-TOLYLAMIDE]	> 50 µM
Cc1ccc(NC(=O)C(CCCCN)NC(=O)Nc2cccc(-c3nc4ccccc4o3)c2)cc1 [Compound 257, (S)-6-AMINO-2-[3-(3-BENZOOXAZOL-2-YL-PHENYL)-UREIDO]-HEXANOIC ACID P-TOLYLAMIDE]	> 50 µM
CCCCNC(=O)[C@H](CCCCN)NC(=O)Nc1ccc(OCc2ccccc2)cc1 [Compound 258, (S)-6-AMINO-2-[3-(4-BENZYLOXY-PHENYL)-UREIDO]-HEXANOIC ACID BUTYLAMIDE]	> 50 µM
NCCCC[C@H](NC(=O)Nc1ccc(OCc2ccccc2)cc1)C(=O)OCCN [Compound 259, (S)-6-AMINO-2-[3-(4-BENZYLOXY-PHENYL)-UREIDO]-HEXANOIC ACID (2-AMINO-ETHYL)-ESTER]	> 50 µM
NCCCC[C@H](NC(=O)Nc1ccc(OCc2ccccc2)cc1)C(=O)NCCO [Compound 260, (S)-6-AMINO-2-[3-(4-BENZYLOXY-PHENYL)-UREIDO]-HEXANOIC ACID (2-HYDROXY-ETHYL)-AMIDE]	> 50 µM
Cc1ccc(NC(=O)[C@H](CCCCN)NC(=O)Nc2ccc(OCc3cccnc3)cc2)cc1 [Compound 261, (S)-6-AMINO-2-{3-[4-(PYRIDIN-3-YLMETHOXY)-PHENYL]-UREIDO}-HEXANOIC ACID P-TOLYLAMIDE]	> 50 µM
NCCCCCCNC(=O)C(Cc1ccccc1)NC(=O)Nc1ccc(OCc2ccccc2)cc1 [Compound 263, (S)—NR-(6-AMINO-HEXYL)-2-13-(4-BENZYLOXY-PHENYL)-UREIDO]-3-PHENYL-PROPIONAMIDE]	10 to 50 µM
NCCCC[C@H](NC(=O)Nc1ccc(OCc2ccccc2)cc1)C(=O)NCC1CCCCC1 [Compound 265, (s)-6-AMINO-2-[3-(4-BENZYLOXY-PHENYL)-UREIDO]-HEXANOIC ACID CYCLOHEXYLMETHYL-AMIDE]	10 to 50 µM
NCCCC[C@H](NC(=O)Nc1ccc(OCc2ccccc2)cc1)C(=O)NC1CC1 [Compound 266, (S)-6-AMINO-2-[3-(4-BENZYLOXY-PHENYL)-UREIDO]-HEXANOIC ACID CYCLOPROPYLAMIDE]	> 50 µM
NCCCC[C@H](NC(=O)OCC1c2ccccc2-c2ccccc21)C(=O)Nc1cc(-c2ccccc2)n[nH]1 [Compound 267, (S)-[5-AMINO-1-(5-PHENYL-2H-PYRAZOL-3-YLCARBAMOYL)-PENTYL]-CARBAMIC ACID 9H-FLUOREN-9-YLMETHYL ESTER]	10 to 50 µM
Cc1ccc(NC(=O)C(CCCCN)NC(=O)Nc2ccc(N3CCCCC3)cc2)cc1 [Compound 269, (S)-6-AMINO-2-[3-(4-PIPERIDIN-1-YL-PHENYL)-UREIDO]-HEXANOIC ACID P-TOLYLAMIDE]	> 50 µM
Cc1ccc(NC(=O)C(CCCCN)NC(=O)Nc2cccc(-c3nc4ccccc4o3)c2)cc1 [Compound 271, (S)-6-AMINO-2-[3-(3-BENZOOXAZOL-2-YL-PHENYL)-UREIDO]-HEXANOIC ACID P-TOLYLAMIDE]	< 10 µM
Cc1ccc(NC(=O)[C@H](CCCCN)NC(=O)Nc2ccc(OCc3ccc(Cl)cc3)cc2)cc1 [Compound 273, (S)-6-AMINO-2-{3-[4-(4-CHLORO-BENZYLOXY)-PHENYL]-UREIDO}-HEXANOIC ACID P-TOLYLAMIDE]	< 10 µM
Cc1ccc(NC(=O)[C@H](CCCCN)NC(=O)Nc2ccc(OCc3ccc(Cl)cc3Cl)cc2)cc1 [Compound 274, (S)-6-AMINO-2-{3-[4-(2,4-DICHLORO-BENZYLOXY)-PHENYL]-UREIDO}-HEXANOIC ACID P-TOLYLAMIDE]	< 10 µM
Cc1ccc(NC(=O)[C@H](CCCCN)NC(=O)Nc2ccc(OCc3cccc([N+](=O)[O-])c3)cc2)cc1 [Compound 275, (S)-6-AMINO-2-{3-[4-(3-NITRO-BENZYLOXY)-PHENYL]-UREIDO}-HEXANOIC ACID P-TOLYLAMIDE]	10 to 50 µM
COC(=O)c1cccc(COc2ccc(NC(=O)NC(CCCCN)C(=O)Nc3ccc(C)cc3)cc2)c1 [Compound 276, (S)-3-{4-[3-(5-AMINO-1-P-TOLYLCARBAMOYL-PENTYL)-UREIDO]-PHENOXYMETHYL}-BENZOIC ACID METHYL ESTER]	10 to 50 µM
Cc1ccc(NC(=O)C(CCCCN)NC(=O)Nc2ccc(OC(C)c3ccccc3)cc2)cc1 [Compound 277, (2S)-6-AMINO-2-{3-[4-(1-PHENYL-ETHOXY)-PHENYL]-UREIDO}-HEXANOIC ACID P-TOLYLAMIDE]	> 50 µM
Cc1ccc(NC(=O)CN(CCCCN)C(=O)Nc2ccc(OCc3ccccc3)cc2)cc1 [Compound 278, 2-[1-(4-AMINO-BUTYL)-3-(4-BENZYLOXY-PHENYL)-UREIDO]-N-P-TOLYL-ACETAMIDE]	10 to 50 µM
Cc1ccc(NC(=O)[C@H](CCCCN)NC(=O)Nc2ccc(OCc3ccncc3)cc2)cc1 [Compound 279, (S)-6-AMINO-2-{3-[4-(PYRIDIN-4-YLMETHOXY)-PHENYL]-UREIDO}-HEXANOIC ACID P-TOLYLAMIDE]	> 50 µM
NCCCCN(CC(=O)Nc1cccc2[nH]ccc12)C(=O)Nc1ccc(OCc2ccccc2)cc1 [Compound 281, 2-[1-(4-AMINO-BUTYL)-3-(4-BENZYLOXY-PHENYL)-UREIDO]-NR-(1H-INDOL-4-YL)-ACETAMIDE]	> 50 µM

SMILES	IC50
CC(C)(C)c1ccc(NC(=O)CN(CCCCN)C(=O)Nc2ccc(OCc3ccccc3)cc2)cc1 [Compound 282, 2-[1-(4-AMINO-BUTYL)-3-(4-BENZYLOXY-PHENYL)-UREIDO]-N-(4-TERT-BUTYL-PHENYL)-ACETAMIDE]	> 50 µM
NCCCC[C@H](NC(=O)Nc1ccc(OCc2ccccc2)cc1)C(=O)Nc1ccc2c(c1)CCC2 [Compound 283, (S)-6-AMINO-2-[3-(4-BENZYLOXY-PHENYL)-UREIDO]-HEXANOIC ACID INDAN-5-YLAMIDE]	10 to 50 µM
Cc1ccc(NC(=O)[C@H](CCCCN)NC(=O)Nc2ccc(OCc3cccc(F)c3F)cc2)cc1 [Compound 284, (S)-6-AMINO-2-{3-[4-(2,3-DIFLUORO-BENZYLOXY)-PHENYL]-UREIDO}-HEXANOIC ACID P-TOLYLAMIDE]	10 to 50 µM
Cc1ccc(NC(=O)[C@H](CCCCN)NC(=O)Nc2ccc(OCc3ccc(F)cc3F)cc2)cc1 [Compound 285, (S)-6-AMINO-2-{3-[4-(2,4-DIFLUORO-BENZYLOXY)-PHENYL]-UREIDO}-HEXANOIC ACID P-TOLYLAMIDE]	10 to 50 µM
Cc1ccc(NC(=O)[C@H](CCCCN)NC(=O)Nc2ccc(OCc3cc(F)ccc3F)cc2)cc1 [Compound 286, (S)-6-AMINO-2-{3-[4-(2,5-DIFLUORO-BENZYLOXY)-PHENYL]-UREIDO}-HEXANOIC ACID P-TOLYLAMIDE]	< 10 µM
Cc1ccc(NC(=O)[C@H](CCCCN)NC(=O)Nc2ccc(OCc3c(F)cccc3F)cc2)cc1 [Compound 287, (S)-6-AMINO-2-{3-[4-(2,6-DIFLUORO-BENZYLOXY)-PHENYL]-UREIDO}-HEXANOIC ACID P-TOLYLAMIDE]	10 to 50 µM
Cc1ccc(NC(=O)[C@H](CCCCN)NC(=O)Nc2ccc(OCc3ccc(F)c(F)c3)cc2)cc1 [Compound 288, (S)-6-AMINO-2-{3-[4-(3,4-DIFLUORO-BENZYLOXY)-PHENYL]-UREIDO}-HEXANOIC ACID P-TOLYLAMIDE]	10 to 50 µM
CN1CCN(C(=O)[C@H](CCCCN)NC(=O)Nc2ccc(OCc3ccccc3)cc2)CC1 [Compound 289, (S)-1-[5-AMINO-1-(4-METHYL-PIPERAZINE-1-CARBONYL)-PENTYL]-3-(4-BENZYLOXY-PHENYL)-UREA]	> 50 µM
NCCCC[C@H](NC(=O)Nc1ccc(OCc2ccccc2)cc1)C(=O)N1CCCCC1 [Compound 290, (S)-1-[5-AMINO-1-(PIPERIDINE-1-CARBONYL)-PENTYL]-3-(4-BENZYLOXY-PHENYL)-UREA]	> 50 µM
CC(C)NC(=O)[C@H](CCCCN)NC(=O)Nc1ccc(OCc2ccccc2)cc1 [Compound 291, (S)-6-AMINO-2-[3-(4-BENZYLOXY-PHENYL)-UREIDO]-HEXANOIC ACID ISOPROPYLAMIDE]	> 50 µM
Cc1ccc(NC(=O)C(CCCCN)NC(=O)Nc2ccc(CN(C)c3ccc(C)cc3)cc2)cc1 [Compound 292, (S)-6-AMINO-2-(3-{4-[(METHYL-P-TOLYL-AMINO)-METHYL]-PHENYL}-UREIDO)-HEXANOIC ACID P-TOLYLAMIDE]	> 50 µM
Cc1ccc(NC(=O)CN(CCCCN)C(=O)OCC2c3ccccc3-c3ccccc32)cc1 [Compound 293, (4-AMINO-BUTYL)-(P-TOLYLCARBAMOYL-METHYL)-CARBAMIC ACID 9H-FLUOREN-9-YLMETHYL ESTER]	< 10 µM
Cc1ccc(NC(=O)C(CCCCN)NC(=O)OCC2c3ccccc3-c3ccccc32)cn1 (stereo not drawn) [Compound 294, [5-AMINO-1-(6-METHYL-PYRIDIN-3-YLCARBAMOYL)-PENTYL]-CARBAMIC ACID 9H-FLUOREN-9-YLMETHYL ESTER]	> 50 µM
Cc1cc2cc(NC(=O)CN(CCCCN)C(=O)OCC3c4ccccc4-c4ccccc43)ccc2[nH]1 [Compound 295, (4-AMINO-BUTYL)-[(2-METHYL-1H-INDOL-5-YLCARBAMOYL)-METHYL]-CARBAMIC ACID 9H-FLUOREN-9-YLMETHYL ESTER]	< 10 µM
Cc1cc2cc(NC(=O)[C@H](CCCNC(=O)CN)NC(=O)Nc3ccc(OCc4ccccc4)cc3)ccc2[nH]1 [Compound 296, (S)-5-(2-AMINO-ACETYLAMINO)-2-[3-(4-BENZYLOXY-PHENYL)-UREIDO]-PENTANOIC ACID (2-METHYL-1H-INDOL-5-YL)-AMIDE]	10 to 50 µM
Cc1cc2cc(NC(=O)[C@H](CCCCNC(=O)CN)NC(=O)Nc3ccc4c(c3)Cc3ccccc3-4)ccc2[nH]1 [Compound 298, (S)-6-(2-AMINO-ACETYLAMINO)-2-[3-(9H-FLUOREN-2-YL)-UREIDO]-HEXANOIC ACID (2-METHYL-1H-INDOL-5-YL)-AMIDE]	> 50 µM
Cc1ccc(NC(=O)[C@H](CCCCN)NC(=O)Nc2ccc(OCc3ccccn3)cc2)cc1 [Compound 299, (S)-6-AMINO-2-{3-[4-(PYRIDIN-2-YLMETHOXY)-PHENYL]-UREIDO}-HEXANOIC ACID P-TOLYLAMIDE]	10 to 50 µM
COc1ccc(NC(=O)N[C@@H](CCCCN)C(=O)Nc2ccc(C)cc2)cc1 [Compound 300, (S)-6-AMINO-2-[3-(4-METHOXY-PHENYL)-UREIDO]-HEXANOIC ACID P-TOLYLAMIDE]	> 50 µM
Cc1ccc(COc2ccc(NC(=O)NC(CCCCN)C(=O)Nc3ccc(C)cc3)cc2)cc1 [Compound 301, (S)-6-AMINO-2-{3-[4-(4-METHYL-BENZYLOXY)-PHENYL]-UREIDO}-HEXANOIC ACID P-TOLYLAMIDE]	> 50 µM
